Results on five compounds are retold here after PubChem BioAssay AID1259407 (Chemical Carcinogenesis Research Information System (CCRIS), 2018).

This data set relates to CCRIS mutagenicity, Ames/micronucleus/aberration tests. Put plainly: CCRIS mutagenicity studies.
The mark [1] stands for this setting: Test System: AMES SALMONELLA TYPHIMURIUM, Strain/Indicator: TA98, Metabolic Activation: NONE, Method: STANDARD PLATE.
[2] abbreviates: Test System: AMES SALMONELLA TYPHIMURIUM, Strain/Indicator: TA100, Metabolic Activation: NONE, Method: STANDARD PLATE.
[3] abbreviates: Test System: AMES SALMONELLA TYPHIMURIUM, Strain/Indicator: TA100, Metabolic Activation: RAT, LIVER, S-9, AROCLOR 1254, Method: STANDARD PLATE.
The mark [4] stands for this setting: Test System: AMES SALMONELLA TYPHIMURIUM, Strain/Indicator: TA1535, Metabolic Activation: NONE, Method: STANDARD PLATE.
[5] abbreviates: Test System: AMES SALMONELLA TYPHIMURIUM, Strain/Indicator: TA1537, Metabolic Activation: NONE, Method: STANDARD PLATE.
[6] abbreviates: Test System: AMES SALMONELLA TYPHIMURIUM, Strain/Indicator: TA1538, Metabolic Activation: NONE, Method: STANDARD PLATE.

The source made the active and inactive calls. The rule behind the calls is not given here.

`O=[N+]([O-])c1cc([N+](=O)[O-])c2ccc3cccc4ccc1c2c43`: the mutagenic call is, setting by setting: (End Point: IN VITRO CHROMOSOMAL ABERRATIONS, Test System: CHINESE HAMSTER LUNG (CHL) CELLS, Metabolic Activation: NONE) “active; positive”; (End Point: IN VITRO CHROMOSOMAL ABERRATIONS, Test System: CHINESE HAMSTER LUNG (CHL) CELLS, Metabolic Activation: RAT, LIVER, S-9, KC-400) “active; positive”; (Test System: AMES SALMONELLA TYPHIMURIUM, Strain/Indicator: TA98 (1,8-DNP6), Metabolic Activation: NONE, Method: STANDARD PLATE) “active; positive”; (Test System: AMES SALMONELLA TYPHIMURIUM, Strain/Indicator: TA98 (NR), Metabolic Activation: NONE, Method: STANDARD PLATE) “active; positive”; (Test System: AMES SALMONELLA TYPHIMURIUM, Strain/Indicator: TA98, Metabolic Activation: NONE, Method: PREINCUBATION) “active; positive”; under setting [1], “active; positive”. For the same compound, the mutagenic call runs as follows: (Test System: AMES SALMONELLA TYPHIMURIUM, Strain/Indicator: TA98, Metabolic Activation: RAT, LIVER, S-9, PCB (10%), Method: PREINCUBATION) “inactive; negative”; under setting [2], “active; positive”; (Test System: AMES SALMONELLA TYPHIMURIUM, Strain/Indicator: TA100, Metabolic Activation: RAT, LIVER, CYTOSOL, AROCLOR 1254, Method: STANDARD PLATE) “active; positive”; (Test System: AMES SALMONELLA TYPHIMURIUM, Strain/Indicator: TA100, Metabolic Activation: RAT, LIVER, CYTOSOL, Method: STANDARD PLATE) “active; positive”; (Test System: AMES SALMONELLA TYPHIMURIUM, Strain/Indicator: TA100, Metabolic Activation: RAT, LIVER, MICROSOMES, AROCLOR 1254, Method: STANDARD PLATE) “active; positive”; (Test System: AMES SALMONELLA TYPHIMURIUM, Strain/Indicator: TA100, Metabolic Activation: RAT, LIVER, MICROSOMES, Method: STANDARD PLATE) “active; positive”. The mutagenic call is, setting by setting: under setting [3], “inactive; negative”; (Test System: AMES SALMONELLA TYPHIMURIUM, Strain/Indicator: TA100, Metabolic Activation: RAT, LIVER, S-9, Method: STANDARD PLATE) “active; positive”; (Test System: AMES SALMONELLA TYPHIMURIUM, Strain/Indicator: TA7001, Metabolic Activation: NONE, Method: PREINCUBATION) “active; positive”; (Test System: AMES SALMONELLA TYPHIMURIUM, Strain/Indicator: TA7002, Metabolic Activation: NONE, Method: PREINCUBATION) “active; positive”; (Test System: AMES SALMONELLA TYPHIMURIUM, Strain/Indicator: TA7003, Metabolic Activation: NONE, Method: PREINCUBATION) “active; positive”; (Test System: AMES SALMONELLA TYPHIMURIUM, Strain/Indicator: TA7004, Metabolic Activation: NONE, Method: PREINCUBATION) “active; positive”. Besides, the mutagenic call was “active; positive” (Test System: AMES SALMONELLA TYPHIMURIUM, Strain/Indicator: TA7005, Metabolic Activation: NONE, Method: PREINCUBATION); “active; positive” (Test System: AMES SALMONELLA TYPHIMURIUM, Strain/Indicator: TA7006, Metabolic Activation: NONE, Method: PREINCUBATION); “inactive; negative” (Test System: UDS HUMAN HEPATOMA CELLS, Strain/Indicator: HEPG2/THY INCORP, Metabolic Activation: NONE).
Take `CC1=CCC(C(C)(C)O)CC1` (stereo not drawn): the mutagenic call (Test System: AMES SALMONELLA TYPHIMURIUM, Strain/Indicator: TA97A, Metabolic Activation: NONE, Method: STANDARD PLATE) is “inactive; negative”; the mutagenic call (Test System: AMES SALMONELLA TYPHIMURIUM, Strain/Indicator: TA97A, Metabolic Activation: RAT LIVER S-9, AROCLOR 1254, Method: STANDARD PLATE) was “inactive; negative”; the mutagenic call (Test System: AMES SALMONELLA TYPHIMURIUM, Strain/Indicator: TA98, Metabolic Activation: HAMSTER, LIVER, S-9, AROCLOR 1254, Method: STANDARD PLATE) was “inactive; negative”; the mutagenic call under setting [1] is “inactive; negative”; the mutagenic call (Test System: AMES SALMONELLA TYPHIMURIUM, Strain/Indicator: TA98, Metabolic Activation: RAT LIVER S-9 AROCLOR 1254, Method: STANDARD PLATE) is “inactive; negative”; the mutagenic call (Test System: AMES SALMONELLA TYPHIMURIUM, Strain/Indicator: TA98, Metabolic Activation: RAT, LIVER, S-9, AROCLOR 1254, Method: STANDARD PLATE) is “inactive; negative”. The mutagenic call is “inactive; negative” (Test System: AMES SALMONELLA TYPHIMURIUM, Strain/Indicator: TA100, Metabolic Activation: HAMSTER, LIVER, S-9, AROCLOR 1254, Method: STANDARD PLATE); “inactive; negative” under setting [2]; “inactive; negative” (Test System: AMES SALMONELLA TYPHIMURIUM, Strain/Indicator: TA100, Metabolic Activation: RAT LIVER S-9, AROCLOR 1254, Method: STANDARD PLATE); “inactive; negative” under setting [3]; “inactive; negative” (Test System: AMES SALMONELLA TYPHIMURIUM, Strain/Indicator: TA1535, Metabolic Activation: HAMSTER, LIVER, S-9, AROCLOR 1254, Method: STANDARD PLATE); “inactive; negative” under setting [4]. Moreover, the mutagenic call (Test System: AMES SALMONELLA TYPHIMURIUM, Strain/Indicator: TA1535, Metabolic Activation: RAT, LIVER, S-9, AROCLOR 1254, Method: STANDARD PLATE) was “inactive; negative”; the mutagenic call (Test System: AMES SALMONELLA TYPHIMURIUM, Strain/Indicator: TA1537, Metabolic Activation: HAMSTER, LIVER, S-9, AROCLOR 1254, Method: STANDARD PLATE) was “inactive; negative”; the mutagenic call under setting [5] is “inactive; negative”; the mutagenic call (Test System: AMES SALMONELLA TYPHIMURIUM, Strain/Indicator: TA1537, Metabolic Activation: RAT, LIVER, S-9, AROCLOR 1254, Method: STANDARD PLATE) is “inactive; negative”; the mutagenic call (Test System: AMES SALMONELLA TYPHIMURIUM, Strain/Indicator: TA1538, Metabolic Activation: HAMSTER, LIVER, S-9, AROCLOR 1254, Method: STANDARD PLATE) was “inactive; negative”; the mutagenic call under setting [6] is “inactive; negative”. The mutagenic call is “inactive; negative” (Test System: AMES SALMONELLA TYPHIMURIUM, Strain/Indicator: TA1538, Metabolic Activation: RAT, LIVER, S-9, AROCLOR 1254, Method: STANDARD PLATE); “inactive; negative. reevaluation of results: negative” (Test System: MOUSE LYMPHOMA, Strain/Indicator: L5178Y (TK+/TK-), Metabolic Activation: NONE, Method: SUSPENSION/PLATE); “inactive; negative. reevaluation of results: negative” (Test System: MOUSE LYMPHOMA, Strain/Indicator: L5178Y (TK+/TK-), Metabolic Activation: RAT, LIVER, S-9, AROCLOR 1254, Method: SUSPENSION/PLATE).
`CC1(C)CCCC(C)(C)N1[O]`: the mutagenic call is “inactive; negative” under setting [1]; “inactive; negative” under setting [2]; “inactive; negative” (Test System: AMES SALMONELLA TYPHIMURIUM, Strain/Indicator: TA102, Metabolic Activation: NONE, Method: STANDARD PLATE).
As for `Oc1c2ccccc2c2ccc3cccc4ccc1c2c43`, where the note is “Test System: CHINESE HAMSTER V-79, Strain/Indicator: V-79/8-AZAGUANINE, Metabolic Activation: NONE, Method: STANDARD PLATE”, the mutagenic call is “active; positive”.
Take `Cc1cccn2c(=O)c(-c3nnn[nH]3)cnc12`: the mutagenic call under setting [1] is “inactive; negative”; the mutagenic call (Test System: AMES SALMONELLA TYPHIMURIUM, Strain/Indicator: TA98, Metabolic Activation: S-9, Method: STANDARD PLATE) is “inactive; negative”; the mutagenic call under setting [2] is “inactive; negative”; the mutagenic call (Test System: AMES SALMONELLA TYPHIMURIUM, Strain/Indicator: TA100, Metabolic Activation: S-9, Method: STANDARD PLATE) is “inactive; negative”; the mutagenic call under setting [4] was “inactive; negative”; the mutagenic call (Test System: AMES SALMONELLA TYPHIMURIUM, Strain/Indicator: TA1535, Metabolic Activation: S-9, Method: STANDARD PLATE) was “inactive; negative”. For the same compound, the mutagenic call is, setting by setting: under setting [5], “inactive; negative”; (Test System: AMES SALMONELLA TYPHIMURIUM, Strain/Indicator: TA1537, Metabolic Activation: S-9, Method: STANDARD PLATE) “inactive; negative”; under setting [6], “inactive; negative”; (Test System: AMES SALMONELLA TYPHIMURIUM, Strain/Indicator: TA1538, Metabolic Activation: S-9, Method: STANDARD PLATE) “inactive; negative”; (Test System: E. COLI, Strain/Indicator: WP2 UVRA, Metabolic Activation: NONE, Method: STANDARD PLATE) “inactive; negative”; (Test System: E. COLI, Strain/Indicator: WP2 UVRA, Metabolic Activation: S-9, Method: STANDARD PLATE) “inactive; negative”.
